From publication PMC8315922, “In Vitro Identification and In Vivo Confirmation of Inhibitors for Sweet Potato Chlorotic Stunt Virus RNA Silencing Suppressor, a Viral RNase III” (Journal of Virology, 2021)
Where two headings read alike, the source gives them in different places.

Legend:
[1] = biological target: CSR3 (RNase III of SPCSV) (Sweet potato chlorotic stunt virus, UniProt Q8JJW8); assay: Kinetic-based FRET dose-response assay (IC50, DSS); assay type: biochemical; conditions: for DSS FIMM1 / DSS FIMM 2 / DSS Comm 1: drug sensitivity score; for DSS FIMM1: repeat FIMM 1; for DSS FIMM 2: repeat FIMM 2; for DSS Comm 1: repeat Comm 1
Method: A dose-response assay with six concentrations (1.25 nM to 50 μM) was carried out in three independent experiments, which included two tests with the 112 selected FIMM compounds (i.e., compounds prepared by the HTB-FIMM) and one test using the newly ordered commercial compounds (99 of the 112 compounds, i.e., compounds prepared by a second supplier). A dose-response curve was generated for each compound based on PI values as a function of the concentration.
The HTS assay was designed based on FRET using a 22-bp siRNA (forward sequence, […]; reverse sequence, […]) with a 2-nucleotide (nt) 3′ overhang labeled with the fluorescent dye 6-carboxyfluorescein (FAM) and a black hole quencher (BHQ1) on the sense strand (Metabion, Munich, Germany). Screening was initially carried out at one concentration (10 μM) in a 20-μl reaction buffer. […] All reaction mixtures contained 50 nM CSR3 and 375 nM labeled siRNA in 384-well black flat-bottom microplates (Corning, NY, USA) and were prepared using a BioTek MultiFlo FX dispenser with single-channel random access dispenser cassettes (BioTek, Winooski, VT, USA). The plates were read with a PHERAstar FS reader (BMG Labtech, Ortenberg, Germany).
(§1) For HTS, the activity of CSR3 was calculated by measuring the change in fluorescence as a function of the reaction time using MARS Data Analysis software (BMG Labtech). To evaluate the CSR3 inhibition efficiency of individual compounds, the PI of each compound was calculated using the slope values for the sample, positive control, and negative control according to the following equation: PI = 100 × [1 − (sample − positive)/(negative − positive)]%. IC50 and DSS values were calculated using concentration-specific PI values according to a previous study ([31]). Relative gene expression was calculated using the classical 2^−ΔΔ^CT method ([63]).

[2] = test system: sweetpotato plants; conditions: 50 μM in culture medium
[3] = test system: human enzymes or bacterial proteins; parameters: method as in earlier work; conditions: ref PubChem https://pubchem.ncbi.nlm.nih.gov/compound/7114450#section=Biological-Test-Results; cited from earlier work
[4] = test system: SPFMV; assay: Virus accumulation (RT-qPCR of coat protein RNA) in coinfected sweetpotato plants grown in culture medium: SPFMV; assay type: in vivo, Sweet potato feathery mottle virus; conditions: for SPFMV_FC (fold change of viral accumulation): 50 μM in culture medium, 28 days, relative to DMSO control
Method: (§2) Since tests in culture medium consume smaller amounts of compounds and can be carried out under relatively controlled conditions, sweetpotato plants coinfected with SPCSV and SPFMV were grown in medium supplemented with one of the 30 inhibitor candidates at a concentration of 50 μM. Their effects on plant growth were monitored by imaging the plants once a week. […] In addition, virus accumulation was quantified by measuring the relative abundance of the transcripts encoding viral coat proteins using RT-qPCR ([32]). The effect of individual compounds on virus accumulation was estimated by comparing treated and control plants.
(§3) Sweetpotato plants cultivar 'Huachano' (accession CIP420065) were side-graft inoculated with both SPFMV (East African strain isolate Nam1) and SPCSV-Ug (East African serotype 2) as described previously ([62]). Plantlets were propagated by taking single-node stems grown in a plant culture medium ([33]). Next, plantlets with newly formed roots were transferred to glass tubes (18 by 150 mm) containing 10 ml of medium supplemented with either 50 μM compound (diluted in DMSO; final DMSO concentration, 0.1%) or only 0.1% DMSO as a control. For plant experiments in soil, plantlets were transferred to pots (6 by 6 by 10 cm) filled with a mixture of sand, humus, and washed soil. After 1 week, plants were treated by foliar spraying using either individual compounds at a single concentration (10 μM) (treatment) or water (control/mock) twice a week for 1 month. All plants were grown at 22°C with 60% humidity and a 16-h light/8-h dark photoperiod for 28 days in culture medium and for 41 days in soil. The Finnish National Plant Phenotyping Infrastructure (NaPPI) was used to monitor plant viral disease symptoms as described in our previous study ([33]). Four compounds were tested with the phenotyping platform in two independent batches, each of which included five biological replicates.
(§4) Leaf samples were collected from plants grown in culture medium or soil for 28 or 41 days, respectively, and frozen in liquid nitrogen. Total RNA was extracted using the Spectrum plant total RNA kit (Sigma-Aldrich). First-strand cDNA was synthesized using the Transcriptor first-strand cDNA synthesis kit (Roche, Basel, Switzerland). […] All RT-qPCR experiments were conducted in triplicate on three and five biological replicates from plants grown in culture medium and soil, respectively. The primer list can be found in our previous study ([33]).
as §1

[5] = test system: SPCSV; assay: Virus accumulation (RT-qPCR of coat protein RNA) in coinfected sweetpotato plants grown in culture medium: SPCSV; assay type: in vivo, Sweet potato chlorotic stunt virus; conditions: for SPCSV_FC (fold change of viral accumulation): 50 μM in culture medium, 28 days, relative to DMSO control
Method: as §2, §3, §4, §1

[6] = biological target: T1, CSR3 (Sweet potato chlorotic stunt virus, UniProt Q8JJW8); assay: Binding affinity assay using MST; conditions: for Binding (Yes/No): MST binding call; for Binding (Yes/No) / Response Amplitude: Table S4; for Response Amplitude: MST response amplitude
T1 sequence (Q8JJW8 1-228): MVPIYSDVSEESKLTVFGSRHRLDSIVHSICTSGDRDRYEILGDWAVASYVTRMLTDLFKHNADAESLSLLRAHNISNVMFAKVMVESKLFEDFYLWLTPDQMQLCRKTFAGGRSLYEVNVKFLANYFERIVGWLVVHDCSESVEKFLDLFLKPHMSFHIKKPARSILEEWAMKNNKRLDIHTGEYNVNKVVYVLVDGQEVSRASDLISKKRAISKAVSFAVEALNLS
Method: (§5) Binding affinity assays were first carried out with the 99 commercial compounds using the MST method.
The labeled-protein solution containing 500 nM proteins and 40 nM dye was prepared in PBS buffer with 2% dimethyl sulfoxide (DMSO) for the assay. The 12 concentrations for each compound were obtained by 2-fold serial dilutions (0.2 μM to 400 μM). […] Two independent experiments were carried out in premium coated capillaries (NanoTemper, Munich, Germany) using a Monolith NT.Automated instrument (NanoTemper) with the power set at high (80%), the light-emitting diode (LED) power (pico red) set at 5%, and the on-time set at 20 s. The dissociation constant (Kd) was determined using the MO.Affinity Analysis program (NanoTemper).

[7] = biological target: T1, CSR3; assay: Binding affinity assay using SPR; conditions: SPR dose-response 3 μM to 200 μM, 25°C, numbers match M (cf. Fig 5A)
Method: as §5
CSR3 was purified as described above and stored in PBS buffer. SPR was performed on a BiacoreT100 instrument (GE Healthcare) using a sensor S CM5 chip (GE Healthcare). CSR3 (10 ng/μl) was immobilized using the standard amine-coupling method according to the manufacturer’s instructions with immobilization buffer (10 mM sodium acetate [pH 4]); the final response unit (RU) value was 11,459. Compounds at a single concentration (100 μM) or consisting of 2-fold serial dilutions (3 μM to 200 μM) were flowed over the sensor surface using PBS buffer with 0.01 M HEPES, 0.05% surfactant P20, and 2% DMSO. […] To eliminate bulk interference by DMSO, a solvent correction consisting of DMSO at concentrations ranging from 1.5% to 2.8% was carried out for every 30 samples. Steady-state affinity (KD) values were determined using BiacoreT100 Evaluation software, v.2.04 (GE Healthcare).

[8] = repeat FIMM 2 (FIMM library compounds), 1.25 nM to 50 μM, unit inferred, numbers match nM, read-out: IC50 FIMM 2
[9] = kinetic-based HTS, Fig 5A summary
[10] = plants in culture medium, 50 μM

Row | SMILES | DSS FIMM1 [1] | DSS FIMM 2 [1] | IC50 [1, 8] [nM] | Toxicity [2] | DSS Comm 1 [1] | SPFMV_FC (fold change of viral accumulation) [4] | SPCSV_FC (fold change of viral accumulation) [5] | Binding (Yes/No) [6] | Response Amplitude [6] | further results
1 | CN1C(=O)C(=CNc2ccc(F)cc2)C(=O)N(C)C1=O [FIMM059523] | 0 | 2.3 | 21000 |  |  |  |  |  |  | 
2 | O=C(O)c1ccc2c(c1)C1C=CCC1C(c1ccc(F)cc1)N2 (centres unmarked) [FIMM051696] | 12.4 | 10.8 |  | no | 11.1 | 0.3032 | 0.2923 | No | 0.517 | DSS [1, 9]: 12.4; IC50 [1, 9]: ~2820 nM; IC50 ([1]; read-out: IC50 Comm 1, repeat Comm 1 (commercial compounds), 1.25 nM to 50 μM, unit inferred, numbers match nM): 3610 nM; IC50 ([1]; read-out: IC50 FIMM1, repeat FIMM 1 (FIMM library compounds), 1.25 nM to 50 μM, unit inferred, numbers match nM (cf. Fig 5A)): 2820 nM; IC50 ([1]; read-out: IC50 FIMM 2, repeat FIMM 2 (FIMM library compounds), 1.25 nM to 50 μM, unit inferred, numbers match nM): 4000 nM; activity in inhibitor screens for human enzymes or bacterial proteins [3]: inactive; SPFMV accumulation reduced [4, 10]: ~4 fold; viral titer SPFMV (log2 fold change relative to controls) [4, 10]: −1.72; SPCSV accumulation reduced [5, 10]: ~4 fold; viral titer SPCSV (log2 fold change relative to controls) [5, 10]: −1.77; Kd ([7]; unit inferred, read-out: Steady State Affinity): 3.65 µM
3 | O=S(=O)(O)c1cccc2cc(O)ccc12 [FIMM072577] | 18.3 | 22.1 | 295 | no | 20.7 | 1.005 | 0.7975 | No | 0 | IC50 ([1]; repeat Comm 1 (commercial compounds), 1.25 nM to 50 μM, unit inferred, numbers match nM, read-out: IC50 Comm 1): 391 nM; IC50 ([1]; repeat FIMM 1 (FIMM library compounds), 1.25 nM to 50 μM, unit inferred, numbers match nM (cf. Fig 5A), read-out: IC50 FIMM1): 699 nM; Comments ([6]; MST behaviour of compound (V-shape response, fluorescence quenching, interference, aggregator)): Interference; Steady State Affinity ([7]; unit not given): non binder
